Format in all cases: cell-based
The subject of assay [1] is skeletal muscle cell line (C2C12). In words: TNF-α-induced inflammatory cytokine production in skeletal muscle cells (ELISA, Real-Time PCR, western blot). The protocol:
(§1) First, skeletal muscle cell lines (C2C12) were obtained. Undercarboxylated osteocalcin (ucOCN, purchased from Bachem, Switzerland) was treated in a medium (DMEM medium containing 10% heat-inactivated fetal bovine serum (FBS), 100 U/mL of penicillin and […] of streptomycin, hereinafter the same) at four different concentrations of 0 ng/ml, 0.5 ng/ml, 5 ng/ml and 50 ng/ml, and skeletal muscle cell lines (C2C12) were prepared in three groups and cultured and pre-treated at 5% CO2, 37° C. for 8 hours, 24 hours, and 48 hours, respectively.
(§2) In order to induce an inflammatory response, each medium was treated with 10 ng/ml of TNF-α (purchased from Peprotech, USA), and cultured for 8 hours under the same conditions.
In order to observe the change in the expression level of TNF-α-induced inflammatory cytokines (TNF-α, IL-1β and IL-6) in skeletal muscle cells due to undercarboxylated osteocalcin, the following experiment was performed.
In the cells obtained from Example 1.1 above, the concentrations of TNF-α, IL-1β and IL-6 were measured through ELISA, and the expression levels of RNA and protein of IL-1β and IL-6 were identified through Real-Time PCR and western blot.

The test system is the same in assay [2]. In words: Level of reactive oxygen species in TNF-α-stimulated skeletal muscle cells (DAPI and CellRox staining). Particulars: ucOCN 0.5 and 5 ng/ml vs untreated group, TNF-α 10 ng/ml, FIG. 3. The method, then:
as §1, §2
In order to identify the level of reactive oxygen species (ROS) in the undercarboxylated osteocalcin-treated cells by being induced inflammatory response with TNF-α in skeletal muscle cells, the following experiment was performed.
The cells obtained in Example 1.1 above were stained with DAPI and CellRox, and observed under a microscope.

Assay [3] concerns JNK, p38 MAPK, and NF-κB. In words: Subcellular signaling in TNF-α-stimulated skeletal muscle cells (western blot). Particulars: C2C12; ucOCN 0.5 ng/ml pretreatment 1, 10, 30 minutes; TNF-α 10 ng/ml; FIG. 4. The protocol: In order to observe the effect of undercarboxylated osteocalcin on the subcellular signaling process on the inflammatory response induced by TNF-α in skeletal muscle cells, the following experiment was performed.
(§3) Undercarboxylated osteocalcin (ucOCN) was treated at a concentration of 0.5 ng/ml in the medium (DMEM medium containing 10% heat-inactivated fetal bovine serum (FBS), 100 U/mL of penicillin and […] of streptomycin, hereinafter the same), and skeletal muscle cell lines (C2C12) were prepared in three groups, and cultured and pre-treated at 5% CO2, 37° C. for 1 minute, 10 minutes, and 30 minutes, respectively.
(§4) In order to induce an inflammatory response, each medium was treated with TNF-α 10 ng/ml, and cultured for 8 hours under the same conditions.
For the cultured cells of each group, the protein amount and phosphorylation level of JNK, p38 MAPK, and NF-κB in each group were measured through western blot.
(In general: Immunoblotting shows a protein as a band on a membrane.)

Assay [4] concerns NF-κB. The experiment in a line: Inhibition of TNF-α-induced NF-κB activity in skeletal muscle cells (western blot, immunofluorescence). The method, then: In order to observe the effect of undercarboxylated osteocalcin on the activity of NF-κB induced by TNF-α in skeletal muscle cells, the following experiment was performed.
as §3, §4
For the cultured cells of each group, the phosphorylation level and the protein amounts in the nucleus of IκBα, IKK (hereinafter, intracytoplasmic) and P65 NF-κB in each group were measured through western blot, and immunofluorescence analysis for each group was performed.

The subject of assay [5] is macrophage cell lines (RAW 264.7). In words: TNF-α-induced inflammatory cytokines and inflammatory mediating enzyme proteins in immune cells (ELISA, western blot). Particulars: ucOCN 0.5, 5, 50 ng/ml pretreatment 8, 24, 48 hours, then TNF-α 10 ng/ml 8 hours, FIGS. 7 and 8. The method, then: First, macrophage cell lines (RAW 264.7) were obtained as immune cells. Undercarboxylated osteocalcin (ucOCN) was treated in a medium at four different concentrations of 0 ng/ml, 0.5 ng/ml, 5 ng/ml and 50 ng/ml, and macrophage cell lines were prepared in three groups and cultured and pre-treated at 5% CO2, 37° C. for 8 hours, 24 hours, and 48 hours, respectively.
In order to induce an inflammatory response, each medium was treated with 10 ng/ml of TNF-α, and cultured for 8 hours under the same conditions to obtain a supernatant.
In order to observe changes in the expression level of TNF-α-induced inflammatory cytokines (TNF-α and IL-6) and inflammatory mediating enzyme proteins (iNOS and COX-2) in immune cells by undercarboxylated osteocalcin, the following experiments were performed.
In each supernatant obtained from Example 2.1 above, the concentrations of TNF-α, IL-1β and IL-6 were measured through ELISA, and the expression level of […] was identified through western blot.
For orientation: ELISA stands for enzyme-linked immunosorbent assay.

Assay [6] has as its system NF-κB promoter. In words: TNF-α-induced NF-κB promoter (luciferase) activity. Particulars: stated in the description, no method given.

Where no end group is shown, it is not given here.

For the substance “undercarboxylated osteocalcin (YLYQWLGAPVPYPDPLEPRREVCELNPDCDELADHIGFQEAYRRFYGPV; not fully specified; ends and bridges not checked; UniProt P02818 52-100, looked up) [osteocalcin in which at least one of the three gamma-carboxylglutamate residues is not γ-carboxylated; purchased from Bachem, Switzerland]”, the IL-1β production entry in assay [1] (TNF-α 10 ng/ml, FIG. 1) is reported as “inhibitory effect of IL-1β production among inflammatory cytokines was remarkably shown”. The “IL-1β production (protein amount)” value in assay [1] (all treatment concentrations of ucOCN (0.5, 5, 50 ng/ml), FIG. 2) is “remarkable production inhibitory effect”. Also, the “inhibition of inflammatory cytokine production by treatment time” value in assay [1] (group treated with ucOCN for 8 hours and 48 hours, FIG. 1) was “remarkably excellent inhibitory effect”. The “TNF-α (protein amount)” value in assay [1] (group treated with ucOCN for 8 hours, FIG. 2) was “excellent inhibitory effect”. In addition, in assay [1] (ucOCN 0.5 ng/ml and 5 ng/ml within 24 hours, FIG. 2), the “IL-6 (protein amount)” value is on record as “remarkable inhibitory effect”. The “production of inflammatory cytokines TNF-α, IL-1β and IL-6” value in assay [1] (ucOCN 0.5, 5, 50 ng/ml pretreatment 8, 24, 48 hours, then TNF-α 10 ng/ml 8 hours, FIG. 1) is given as “inhibited the production of inflammatory cytokines”. Moreover, the “level of reactive oxygen species” value in assay [2] is “significantly inhibited”. Further, in assay [3], the “protein amount of NF-κB” value was “significantly inhibited”; the “protein amounts and phosphorylation levels of JNK and p38 MAPK” value is “significantly inhibited”. In assay [4] (C2C12, immunofluorescence analysis, FIG. 6), the “cytoplasmic-to-nuclear translocation of NF-κB induced by TNF-α” value was “inhibited cytoplasmic-to-nuclear translocation of NF-κB”. In assay [4] (C2C12 cytoplasm, ucOCN 0.5 ng/ml, TNF-α 10 ng/ml, FIG. 5), the “PHOPHO-IκBα and total IκBα (TNF-α alone: phospho increased, total decreased)” value is recorded as “showed the opposite result”. For the same substance, the “production of inflammatory cytokines TNF-α, IL-1β, IL-6 and inflammatory mediating enzyme proteins iNOS and COX-2” value in assay [5] was “inhibited the production of inflammatory cytokines and inflammatory mediating enzyme proteins”. In assay [6], the “TNF-α-induced NF-κB luciferase activity” value was “significantly inhibits”.

For the origin of these results see patent US20220184183A1, “PHARMACEUTICAL COMPOSITION, FOR PREVENTING OR TREATING INFLAMMATORY DISEASES, COMPRISING OSTEOCALCIN” (GENEROATH CO., LTD., priority 2019, published 2022).
